Data as given in US20220306617A1, “SUBSTITUTED 1,3-PHENYL HETEROARYL DERIVATIVES AND THEIR USE IN THE TREATMENT OF DISEASE” (NOVARTIS AG, priority 2019, published 2022).
Counter-ions that a name gives are not always drawn.

Target: T1, abc isoform of human TMEM16A channel expressed in CHO cells (Homo sapiens, UniProt Q5XXA6, DEL476-501)
T1 construct: expressed in transfected cells; host or cells: CHO cells, doxycycline-inducible expression under Blasticidin/Zeocin selection
T1 sequence (Q5XXA6 with tags, fused parts or gaps isoform Q5XXA6-5 DEL539-564): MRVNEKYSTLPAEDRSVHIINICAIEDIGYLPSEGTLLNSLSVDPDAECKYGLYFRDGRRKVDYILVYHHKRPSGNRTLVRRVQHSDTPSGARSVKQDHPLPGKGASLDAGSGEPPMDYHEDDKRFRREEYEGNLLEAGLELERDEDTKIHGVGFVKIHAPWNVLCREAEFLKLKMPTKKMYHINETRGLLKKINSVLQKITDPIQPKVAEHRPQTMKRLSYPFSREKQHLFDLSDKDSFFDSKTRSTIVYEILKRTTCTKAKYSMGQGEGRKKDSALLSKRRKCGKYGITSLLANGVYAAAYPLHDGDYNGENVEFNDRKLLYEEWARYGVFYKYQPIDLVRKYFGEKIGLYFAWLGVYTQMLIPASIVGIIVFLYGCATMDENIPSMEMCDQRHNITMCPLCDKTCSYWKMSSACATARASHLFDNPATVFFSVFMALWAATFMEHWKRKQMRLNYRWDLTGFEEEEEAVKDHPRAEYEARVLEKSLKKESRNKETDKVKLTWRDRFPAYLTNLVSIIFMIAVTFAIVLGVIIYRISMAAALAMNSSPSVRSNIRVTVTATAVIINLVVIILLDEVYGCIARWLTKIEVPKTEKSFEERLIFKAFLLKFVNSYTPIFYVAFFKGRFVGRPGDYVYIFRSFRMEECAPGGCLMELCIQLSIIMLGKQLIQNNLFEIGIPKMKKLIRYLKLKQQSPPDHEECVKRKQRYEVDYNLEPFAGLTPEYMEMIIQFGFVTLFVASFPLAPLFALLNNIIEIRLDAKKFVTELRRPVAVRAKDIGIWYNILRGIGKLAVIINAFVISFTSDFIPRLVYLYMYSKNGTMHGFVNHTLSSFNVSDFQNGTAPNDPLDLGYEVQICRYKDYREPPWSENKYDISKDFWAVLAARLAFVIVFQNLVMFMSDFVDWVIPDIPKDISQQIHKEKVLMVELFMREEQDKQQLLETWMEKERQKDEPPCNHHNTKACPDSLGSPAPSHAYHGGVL
Assay: Automated patch clamping (QPatch) assay to measure TMEM16A activity in whole-cell
Assay type: cell-based
Conditions: for EC50: CHO cells expressing human TMEM16A (abc), whole-cell automated patch clamp, Hill fit, read-out: TMEM16A QPATCH assay EC50 V3 EC50; for Emax: CHO, maximum current at highest dose relative to reference potentiator at maximal concentration (upper limit) and vehicle (lower limit), read-out: TMEM16A QPATCH assay EC50 V3 Assay Window (% TMEM16A max activation)
In short: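 Whole-cell currents were recorded by planar automated patch clamp from induced CHO cells (doxycycline 1 μg/mL, 18-24 h), using a −70 mV hold, +70 mV step and −90 to +70 mV ramp. Values: Hill-fitted EC50, and activation scaled between vehicle current and reference-potentiator maximum; 0.3% DMSO final.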

EC50 | Emax | Compound
680 nM | 111% | CCOC(=O)[C@H](CCSC)NC(=O)c1cnc(-c2cccc(-c3cc(C(=O)NC(CC)CC)n[nH]3)c2)o1 [Example 1.14, (S)-Ethyl 4-(Methylthio)-2-(2-(3-(3-(Pentan-3-Ylcarbamoyl)-1H-Pyrazol-5-yl)Phenyl)Oxazole-5-Carboxamido)Butanoate]
490 nM | 92% | CCC(CC)NC(=O)c1cnc(-c2cccc(-c3cc(C(=O)N[C@@H](C)[C@H]4CCCO4)n[nH]3)c2)o1 (single isomer, unassigned) [3.0 (i)]
130 nM | 79% | CCC(CC)NC(=O)c1cnc(-c2cccc(-c3cc(C(=O)NCCSC(C)(C)C)n[nH]3)c2)o1 [Example 3.23, 2-(3-(3-((2-(Tert-Butylthio)Ethyl)Carbamoyl)-1H-Pyrazol-5-Yl)Phenyl)-N-(Pentan-3-Yl)Oxazole-5-Carboxamide]
910 nM | 103% | COC(=O)[C@H](CC1CCCCC1)NC(=O)c1cnc(-c2cccc(-c3cc(C(=O)NC(C4CC4)C4CC4)n[nH]3)c2)o1 [Example 1.4, (S)-Methyl 3-Cyclohexyl-2-(2-(3-(3-((Dicyclopropylmethyl)Carbamoyl)-1H-Pyrazol-5-Yl)Phenyl)Oxazole-5-Carboxamido)Propanoate]
980 nM | 64% | CCOC(=O)C(C)(C)NC(=O)c1cnc(-c2cccc(-c3cc(C(=O)NC(CC)CC)n[nH]3)c2)o1 [Example 1.51, Ethyl 2-Methyl-2-(2-(3-(3-(Pentan-3-Ylcarbamoyl)-1H-Pyrazol-5-Yl)Phenyl)Oxazole-5-Carboxamido)Propanoate Trifluoroacetate]
180 nM | 88% | CCC(CC)NC(=O)c1cnc(-c2cccc(-c3cc(C(=O)N[C@@H](C)C4CC4)n(CCO)n3)c2)o1 [Example 9.8, (S)-2-(3-(5-((1-cyclopropylethyl)carbamoyl)-1-(2-hydroxyethyl)-1 H-pyrazol-3-yl)phenyl)-N-(pentan-3-yl)oxazole-5-carboxamide]
290 nM | 112% | CCC(CC)NC(=O)c1cc(-c2cccc(-c3ncc(C(=O)NC(CC)CC)o3)c2)n[nH]1 [Example 1.20, N-(Pentan-3-Yl)-2-(3-(5-(Pentan-3-Ylcarbamoyl)-1H-Pyrazol-3-yl)Phenyl)Oxazole-5-Carboxamide]
170 nM | 72% | CCC(CC)NC(=O)c1cnc(-c2cccc(-c3cc(C(=O)N[C@@H](C)C4CCCCC4)n[nH]3)c2)o1 [Example 3.49, (S)-2-(3-(3-((1-Cyclohexylethyl)Carbamoyl)-1H-Pyrazol-5-Yl)Phenyl)-N-(Pentan-3-Yl)Oxazole-5-Carboxamide]
40 nM | 79% | CCOC(=O)[C@@H](NC(=O)c1cnc(-c2cccc(-c3cc(C(=O)N[C@@H](C)C4CC4)n[nH]3)c2)o1)C(C)C [Example 1.0, (S)-Ethyl 2-(2-(3-(3-(((S)-1-Cyclopropylethyl)Carbamoyl)-1H-Pyrazol-5-Yl)Phenyl)Oxazole-5-Carboxamido)-3-Methylbutanoate]
190 nM | 92% | CC(C)OC(=O)[C@@H](NC(=O)c1cnc(-c2cccc(-c3nnc(C(=O)N[C@@H](C)C4CC4)[nH]3)c2)o1)C(C)C [Example 12.12]
140 nM | 80% | CCOC(=O)[C@H](Cc1ccccc1)NC(=O)c1cc(-c2cccc(-c3ncc(C(=O)NC(CC)CC)o3)c2)[nH]n1 [Example 3.66, (S)-Ethyl 2-(5-(3-(5-(Pentan-3-Ylcarbamoylyl-Carbamoyl)Oxazol-2-Yl)Phenyl)-1H-Pyrazole-3-Carboxamido)-3-Phenylpropanoate Trifluoroacetate]
300 nM | 140% | CCC(CC)NC(=O)c1cnc(-c2cccc(-c3cc(C(=O)NC(COC)C4CC4)n[nH]3)c2)o1 (stereo not drawn) [Example 3.1, 2-(3-(3-((1-Cyclopropyl-2-Methoxyethyl)Carbamoyl)-1H-Pyrazol-5-Yl)Phenyl)-N-(Pentan-3-Yl)Oxazole-5-Carboxamide]
